Where two headings read alike, the source gives them in different places. Blank lines part the entries; values can stand above or below the compound they belong to.
Columns and labels:
[1] = DPPH free radical scavenging assay; conditions: mean ± SE, triplicate; read-out: EC50 Radical Scavenging Activities DPPH
Procedure: (§1) The ability of the samples to scavenge free radicals was evaluated using a range of in vitro tests, including DPPH, ABTS, and superoxide anion radicals, with BHA utilized as a positive control.
(§2) The DPPH free radical, ABTS cation radical, and superoxide anion radical scavenging approaches were used in the antioxidant activity of the present study. The capacity for the radical scavenging was represented by EC50 values. […] Every sample was observed three times. Butylated hydroxyanisole (BHA) is the positive control drug in this evaluation of antioxidant activity.

[2] = ABTS cation radical scavenging assay; conditions: mean ± SE, triplicate; read-out: EC50 Radical Scavenging Activities ABTS
Procedure: as §1, §2

[3] = Superoxide anion radical scavenging assay; conditions: mean ± SE, triplicate; read-out: EC50 Radical Scavenging Activities Superoxide Anion Radicals
Procedure: as §1, §2

[4] = molecular target: T1, type-VI B porcine pancreatic α-amylase (Sus scrofa, UniProt P00690); experiment: α-Amylase inhibition with soluble starch (1%); assay type: biochemical; conditions: mean ± SE, triplicate
T1 construct: type-VI B porcine pancreatic α-amylase; from tissue; host or cells: porcine pancreas (preparation grade 'type-VI B')
T1 sequence (P00690 16-511): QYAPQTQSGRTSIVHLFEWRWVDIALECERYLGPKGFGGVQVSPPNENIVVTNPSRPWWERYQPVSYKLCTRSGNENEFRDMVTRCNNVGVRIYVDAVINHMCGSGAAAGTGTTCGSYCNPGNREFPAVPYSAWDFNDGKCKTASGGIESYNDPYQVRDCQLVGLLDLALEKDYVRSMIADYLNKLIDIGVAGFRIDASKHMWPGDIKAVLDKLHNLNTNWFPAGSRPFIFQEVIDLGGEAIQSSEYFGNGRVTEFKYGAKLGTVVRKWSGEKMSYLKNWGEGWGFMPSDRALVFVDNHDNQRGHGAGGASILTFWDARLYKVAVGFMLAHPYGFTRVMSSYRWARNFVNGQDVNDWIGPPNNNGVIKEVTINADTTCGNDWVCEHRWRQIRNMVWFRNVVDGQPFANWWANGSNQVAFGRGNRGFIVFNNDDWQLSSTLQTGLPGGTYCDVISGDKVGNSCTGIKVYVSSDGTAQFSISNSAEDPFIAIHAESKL
Procedure: Moreover, similar tests were carried out to reveal if the synthesized molecules inhibited α-amylase, another important carbohydrate-hydrolyzing enzyme.
(§3) Inhibitory activity of α-amylase and α-glycosidase was expressed as percent inhibition, calculated using the following formula. Inhibition (%) = (A control − A sample)/A control × 100
(§4) The IC50 values were obtained from a graph that correlated the percentage of the inhibition of each sample with its concentration. Each experiment included three replicates, along with appropriate blanks.

[5] = molecular target: T2, yeast α-glycosidase (Saccharomyces cerevisiae, UniProt P38158); experiment: biochemical
Source text: as §3, §4

[6] = molecular target: T2, yeast α-glycosidase; experiment: Kinetic analysis of α-glycosidase inhibition (Lineweaver–Burk, Dixon plots); assay type: biochemical
Procedure: (§5) For the kinetic studies, α-glycosidase and α-amylase were incubated with designated concentrations of the substrate pNPG and starch, respectively, in the absence (control) or presence of IC20-, IC40-, and IC60-inhibitory concentrations of 7d. The mode of inhibition, [Km], and [Vmax] values were determined by graphical means using Lineweaver–Burk plots. […] The kinetic results established that the maximum velocity (Vmax) of the 7d reaction (with increasing concentrations) remained constant and was catalyzed by α-glycosidase and α-amylase (Table 3).
(§6) The enzyme kinetics of the compounds’ inhibition of the glycosidase activity were examined using different concentrations of the substrate against the IC20, IC40, and IC60 inhibitory concentrations of the compounds, as previously reported. The type of inhibition, Km, and Vmax were calculated using a double-reciprocal plot of the substrate concentration and velocity (1/V against 1/[pNPG]). The inhibitory constant (Ki) was also determined using the Dixon plot.

[7] = molecular target: T3, α-amylase (Sus scrofa, UniProt P00690); experiment: Kinetic analysis of α-amylase inhibition (Lineweaver–Burk, Dixon plots); assay type: biochemical, porcine
T3 construct: type-VI B porcine pancreatic α-amylase; from tissue; host or cells: porcine pancreas (preparation grade 'type-VI B')
T3 sequence (P00690 16-511): T1 sequence (P00690 16-511)
Procedure: as §5, §6

T2 sequence (P38158 whole entry): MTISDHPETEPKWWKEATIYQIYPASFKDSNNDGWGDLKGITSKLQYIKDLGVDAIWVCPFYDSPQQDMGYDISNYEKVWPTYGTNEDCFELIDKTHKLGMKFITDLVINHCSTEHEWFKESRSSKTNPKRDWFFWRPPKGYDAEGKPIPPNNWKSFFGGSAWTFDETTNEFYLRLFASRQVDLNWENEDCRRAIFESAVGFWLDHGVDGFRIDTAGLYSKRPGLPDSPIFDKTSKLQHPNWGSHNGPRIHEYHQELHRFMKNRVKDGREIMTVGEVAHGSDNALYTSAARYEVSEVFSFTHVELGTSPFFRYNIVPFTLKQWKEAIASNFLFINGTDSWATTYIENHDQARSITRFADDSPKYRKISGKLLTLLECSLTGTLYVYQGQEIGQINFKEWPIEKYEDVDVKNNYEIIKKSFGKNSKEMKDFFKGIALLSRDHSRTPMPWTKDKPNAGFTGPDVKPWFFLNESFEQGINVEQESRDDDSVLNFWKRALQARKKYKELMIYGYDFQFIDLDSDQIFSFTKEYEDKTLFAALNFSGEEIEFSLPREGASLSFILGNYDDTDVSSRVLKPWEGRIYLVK

SMILES: N#Cc1c(-c2ccc([N+](=O)[O-])cc2)nn(C(=O)COc2cccc3cccnc23)c1N [4a, 5-Amino-3-(4-nitrophenyl)-1-(2-(quinolin-8-yloxy)acetyl)-1H-pyrazole-4-carbonitrile]
EC50 [1]: 1500 ± 770 µM
EC50 [2]: 1300 ± 1000 µM
EC50 [3]: 1110 ± 270 µM
IC50 [4]: 720 ± 510 µM
IC50 [5]: 240 ± 50 µM
melting point: 157 to 159 °C

SMILES: N#Cc1c(-c2ccccc2O)nn(C(=O)COc2cccc3cccnc23)c1N [4c, 5-Amino-3-(2-hydroxyphenyl)-1-(2-(quinolin-8-yloxy)acetyl)-1H-pyrazole-4-carbonitrile]
EC50 [1]: 4550 ± 1570 µM
EC50 [2]: 7860 ± 550 µM
EC50 [3]: 5950 ± 1050 µM
IC50 [4]: 1600 ± 770 µM
IC50 [5]: 1110 ± 740 µM
melting point: 157 to 159 °C

SMILES: N#Cc1c(-c2ccc([N+](=O)[O-])cc2)cc(N2C(=O)c3ccccc3C2=O)nc1N [7b, 2-Amino-6-(1,3-dioxoisoindolin-2-yl)-4-(4-nitrophenyl)nicotinonitrile]
EC50 [1]: 2000 ± 150 µM
EC50 [2]: 2600 ± 770 µM
EC50 [3]: 2300 ± 1990 µM
IC50 [4]: 1500 ± 1500 µM
IC50 [5]: 1050 ± 880 µM
melting point: 153 to 155 °C

SMILES: N#Cc1c(-c2ccc([N+](=O)[O-])cc2)cc(N2C(=O)c3ccccc3C2=O)[nH]c1=O [8b, 6-(1,3-Dioxoisoindolin-2-yl)-4-(4-nitrophenyl)-2-oxo-1,2-dihydropyridine-3-carbonitrile]
EC50 [1]: 4500 ± 790 µM
EC50 [2]: 9880 ± 2250 µM
EC50 [3]: 6000 ± 2450 µM
IC50 [4]: 1600 ± 830 µM
IC50 [5]: 1010 ± 40 µM
melting point: 221 to 223 °C

SMILES: N#Cc1c(-c2ccccc2O)cc(N2C(=O)c3ccccc3C2=O)[nH]c1=O [8c, 6-(1,3-Dioxoisoindolin-2-yl)-4-(2-hydroxyphenyl)-2-oxo-1,2-dihydropyridine-3-carbonitrile]
EC50 [1]: 2500 ± 1110 µM
EC50 [2]: 2440 ± 670 µM
EC50 [3]: 5150 ± 770 µM
IC50 [4]: 3550 ± 1550 µM
IC50 [5]: 1800 ± 720 µM
melting point: 205 to 207 °C

SMILES: N#Cc1c(-c2ccc(Cl)c(Cl)c2O)cc(N2C(=O)c3ccccc3C2=O)[nH]c1=O [8d, 4-(3,4-Dichloro-2-hydroxyphenyl)-6-(1,3-dioxoisoindolin-2-yl)-2-oxo-1,2-dihydropyridine-3-carbonitrile]
EC50 [1]: 5050 ± 2220 µM
EC50 [2]: 9990 ± 1890 µM
EC50 [3]: 5220 ± 850 µM
IC50 [4]: 5000 ± 3000 µM
IC50 [5]: 2220 ± 110 µM
melting point: 233 to 235 °C

SMILES: COc1ccc(O)c(C(C)(C)C)c1 [BHA, Butylated hydroxyanisole, reference compound]
EC50 [1]: 800 ± 320 µM
EC50 [2]: 640 ± 310 µM
EC50 [3]: 950 ± 170 µM

EC50 [1]: 4650 ± 2250 µM
EC50 [2]: 4500 ± 1140 µM
EC50 [3]: 4500 ± 1110 µM
IC50 [4]: 900 ± 1040 µM
IC50 ([5]; mean ± SE, triplicate, read-out: IC50 α-Glycosidase): 500 ± 660 µM
melting point: 137 to 139 °C
SMILES: NNC(=O)COc1cccc2cccnc12 [compound 1, 2-(Quinolin-8-yloxy)acetohydrazide]

SMILES: CC(=NNC(=O)COc1cccc2cccnc12)c1ccc(N2C(=O)c3ccccc3C2=O)cc1 [compound 3, N’-(1-(4-(1,3-Dioxoisoindolin-2-yl)phenyl)ethylidene)-2-(quinolin-8-yloxy)acetohydrazide]
EC50 [1]: 1600 ± 1020 µM
EC50 [2]: 1350 ± 1100 µM
EC50 [3]: 1100 ± 550 µM
IC50 [4]: 910 ± 1550 µM
IC50 [5]: 470 ± 350 µM
melting point: 211 to 213 °C

SMILES: N#Cc1c(-c2ccc(Cl)cc2)nn(C(=O)COc2cccc3cccnc23)c1N [compound 4b, 5-Amino-3-(4-chlorophenyl)-1-(2-(quinolin-8-yloxy)acetyl)-1H-pyrazole-4-carbonitrile]
EC50 [1]: 5000 ± 250 µM
EC50 [2]: 4750 ± 420 µM
EC50 [3]: 4500 ± 2000 µM
IC50 [4]: 1550 ± 1670 µM
IC50 [5]: 990 ± 330 µM
melting point: 163 to 165 °C

SMILES: S=C1N=NC(COc2cccc3cccnc23)=N1 [compound 6, 5-((Quinolin-8-yloxy)methyl)-3H-1,2,4-triazole-3-thione]
EC50 [1]: 3330 ± 860 µM
EC50 [2]: 8010 ± 330 µM
EC50 [3]: 6100 ± 1540 µM
IC50 [4]: 3650 ± 2470 µM
IC50 [5]: 1500 ± 2000 µM
melting point: 187 to 189 °C

SMILES: N#Cc1c(-c2ccccc2)cc(N2C(=O)c3ccccc3C2=O)nc1N [compound 7a, 2-Amino-6-(1,3-dioxoisoindolin-2-yl)-4-phenylnicotinonitrile]
EC50 [1]: 1990 ± 90 µM
EC50 [2]: 2250 ± 220 µM
EC50 [3]: 2250 ± 660 µM
IC50 [4]: 3500 ± 1000 µM
IC50 [5]: 1780 ± 60 µM
melting point: 167 to 169 °C

SMILES: N#Cc1c(-c2ccccc2O)cc(N2C(=O)c3ccccc3C2=O)nc1N [compound 7c, 2-Amino-6-(1,3-dioxoisoindolin-2-yl)-4-(2-hydroxyphenyl)nicotinonitrile]
EC50 [1]: 1000 ± 850 µM
EC50 [2]: 1230 ± 480 µM
EC50 [3]: 1000 µM
IC50 [4]: 260 ± 320 µM
IC50 [5]: 110 ± 40 µM
melting point: 160 to 162 °C

SMILES: N#Cc1c(-c2ccc(Cl)c(Cl)c2O)cc(N2C(=O)c3ccccc3C2=O)nc1N [compound 7d, 2-Amino-4-(3,4-dichloro-2-hydroxyphenyl)-6-(1,3-dioxoisoindolin-2-yl)nicotinonitrile]
EC50 [1]: 650 ± 30 µM
EC50 [2]: 520 ± 250 µM
EC50 [3]: 930 ± 120 µM
IC50 [4]: 210 ± 60 µM
IC50 [5]: 70 ± 100 µM
IC20 [6]: 30 µM
Ki (dissociation constant) ([6]; α-glycosidase, Dixon plot, mean ± SE): 0.47 mg
Mode of Inhibition ([6]; α-glycosidase, Lineweaver–Burk plot): competitive inhibition
1/Vmax (reciprocal maximum velocity) ([6]; α-glycosidase, treatment IC20 0.03 μg): 28.82 10^3 (µM/min)^−1
1/Vmax (reciprocal maximum velocity) ([6]; α-glycosidase, treatment IC40 0.06 μg): 29.00 10^3 (µM/min)^−1
1/Vmax (reciprocal maximum velocity) ([6]; α-glycosidase, treatment IC60 0.08 μg): 29.29 10^3 (µM/min)^−1
Ki (dissociation constant) ([7]; Dixon plot, mean ± SE): 0.75 mg
Mode of Inhibition ([7]; Lineweaver–Burk plot): competitive inhibition
IC20 ([7]; inhibitory concentration used in kinetics): 80 µM
1/Vmax (reciprocal maximum velocity) ([7]; treatment IC20 0.08 μg): 13.01 10^3 (µM/min)^−1
1/Vmax (reciprocal maximum velocity) ([7]; treatment IC40 0.16 μg): 13.90 10^3 (µM/min)^−1
1/Vmax (reciprocal maximum velocity) ([7]; treatment IC60 0.25 μg): 13.15 10^3 (µM/min)^−1

SMILES: N#Cc1c(-c2ccccc2)cc(N2C(=O)c3ccccc3C2=O)[nH]c1=O [compound 8a, 6-(1,3-Dioxoisoindolin-2-yl)-2-oxo-4-phenyl-1,2-dihydropyridine-3-carbonitrile]
EC50 [1]: 3250 ± 1230 µM
EC50 [2]: 10000 ± 1170 µM
EC50 [3]: 5780 ± 3010 µM
IC50 [4]: 880 ± 360 µM
IC50 [5]: 1000 µM
melting point: 216 to 218 °C

Source: publication PMC10535292, “Quinoline- and Isoindoline-Integrated Polycyclic Compounds as Antioxidant, and Antidiabetic Agents Targeting the Dual Inhibition of α-Glycosidase and α-Amylase Enzymes” (Pharmaceuticals, 2023)
